Measured values taken from ChEMBL document CHEMBL1201862, “PubChem BioAssay data set” (2004).
The source made the active and inactive calls.

What was measured:
[1] = target: T1, High affinity choline transporter 1 (Homo sapiens, UniProt Q9GZV3); test: human choline transporter blockers, potency – cell-based, 5-point CRC, membrane potential dye, dose response (AID 504840); assay type: functional
T1 sequence (Q9GZV3 whole entry): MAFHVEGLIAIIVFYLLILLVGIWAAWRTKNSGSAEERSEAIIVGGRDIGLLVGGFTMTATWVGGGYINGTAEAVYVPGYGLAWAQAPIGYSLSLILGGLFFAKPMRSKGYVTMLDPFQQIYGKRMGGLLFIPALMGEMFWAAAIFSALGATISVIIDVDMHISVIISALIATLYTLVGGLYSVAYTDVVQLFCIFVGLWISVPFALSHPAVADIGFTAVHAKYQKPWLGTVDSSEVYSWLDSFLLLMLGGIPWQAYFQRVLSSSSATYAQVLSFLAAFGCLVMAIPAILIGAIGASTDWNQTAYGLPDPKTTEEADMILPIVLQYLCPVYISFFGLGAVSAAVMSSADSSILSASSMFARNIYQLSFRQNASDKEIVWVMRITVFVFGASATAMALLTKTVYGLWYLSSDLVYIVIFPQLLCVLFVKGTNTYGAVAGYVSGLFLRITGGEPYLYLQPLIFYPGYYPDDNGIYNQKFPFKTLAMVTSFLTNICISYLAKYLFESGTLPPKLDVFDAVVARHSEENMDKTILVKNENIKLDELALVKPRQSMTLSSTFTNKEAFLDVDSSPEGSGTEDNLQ

[2] = target: T1, High affinity choline transporter 1; test: human choline transporter blockers, potency – cell-based, 10-point CRC, membrane potential dye, dose response (AID 588401); assay type: functional;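 also: membrane potential dye fluorescence of choline-evoked depolarization via CHT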
[3] = target: T2, Short transient receptor potential channel 4 (Mus musculus, UniProt Q9QUQ5); test: calcium entry via TRPC4 opening agents – cell-based, HEK293 TRPC4/mu-opioid, Fluo-4 calcium, dose response (AID 434937); assay type: functional
T2 sequence (Q9QUQ5 whole entry): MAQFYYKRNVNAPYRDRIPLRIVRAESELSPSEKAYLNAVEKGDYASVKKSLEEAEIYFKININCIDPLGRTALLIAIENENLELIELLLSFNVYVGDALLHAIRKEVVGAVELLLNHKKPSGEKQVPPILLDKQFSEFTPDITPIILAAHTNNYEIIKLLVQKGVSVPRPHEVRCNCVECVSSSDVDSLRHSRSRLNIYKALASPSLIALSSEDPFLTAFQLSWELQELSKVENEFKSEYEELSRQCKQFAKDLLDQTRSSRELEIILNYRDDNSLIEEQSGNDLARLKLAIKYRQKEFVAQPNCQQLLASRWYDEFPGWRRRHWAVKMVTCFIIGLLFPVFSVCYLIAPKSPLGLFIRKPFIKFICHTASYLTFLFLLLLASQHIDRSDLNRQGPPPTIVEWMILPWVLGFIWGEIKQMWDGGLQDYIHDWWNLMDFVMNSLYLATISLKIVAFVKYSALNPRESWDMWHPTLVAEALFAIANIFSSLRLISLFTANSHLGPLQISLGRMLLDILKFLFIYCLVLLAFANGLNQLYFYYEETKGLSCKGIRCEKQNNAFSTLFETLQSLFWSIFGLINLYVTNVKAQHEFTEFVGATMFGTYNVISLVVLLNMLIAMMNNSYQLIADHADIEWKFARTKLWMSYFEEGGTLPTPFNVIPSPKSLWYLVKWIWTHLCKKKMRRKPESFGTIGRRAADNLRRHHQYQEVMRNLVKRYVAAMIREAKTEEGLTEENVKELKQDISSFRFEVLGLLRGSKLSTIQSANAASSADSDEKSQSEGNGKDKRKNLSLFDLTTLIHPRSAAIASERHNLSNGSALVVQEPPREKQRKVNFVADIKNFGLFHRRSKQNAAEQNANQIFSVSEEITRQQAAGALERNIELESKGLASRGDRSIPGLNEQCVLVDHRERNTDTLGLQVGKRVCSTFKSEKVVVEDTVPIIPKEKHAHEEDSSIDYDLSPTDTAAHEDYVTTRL

[4] = NIH3T3 cell viability loss – ATP luminescence, mouse fibroblasts, counter-screen, dose response (AID 2010); assay type: functional, cell-based;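 also: cells exposed to compound for about 90 hours before reading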
[5] = Trypanosoma cruzi growth suppression in host cells – NIH3T3 host cells, beta-gal luminescence, confirmation (AID 2044); assay type: functional, cell-based;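 also: intracellular parasites grown in NIH/3T3 mouse fibroblasts as host cells; luminescent beta-galactosidase reporter signal from transgenic T. cruzi replicating inside host cells; inhibitors lower the luminescence signal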
[6] = target: Heat shock protein HSP 90-alpha (Homo sapiens, UniProt P07900); assay type: functional, organism-based
[7] = target: T3, Voltage-gated N-type calcium channel alpha-1B subunit/Amyloid beta A4 precursor protein-binding family A member 1 (Homo sapiens, UniProt Q00975+Q02410); assay type: protein assay
T3 sequence (Q00975 whole entry): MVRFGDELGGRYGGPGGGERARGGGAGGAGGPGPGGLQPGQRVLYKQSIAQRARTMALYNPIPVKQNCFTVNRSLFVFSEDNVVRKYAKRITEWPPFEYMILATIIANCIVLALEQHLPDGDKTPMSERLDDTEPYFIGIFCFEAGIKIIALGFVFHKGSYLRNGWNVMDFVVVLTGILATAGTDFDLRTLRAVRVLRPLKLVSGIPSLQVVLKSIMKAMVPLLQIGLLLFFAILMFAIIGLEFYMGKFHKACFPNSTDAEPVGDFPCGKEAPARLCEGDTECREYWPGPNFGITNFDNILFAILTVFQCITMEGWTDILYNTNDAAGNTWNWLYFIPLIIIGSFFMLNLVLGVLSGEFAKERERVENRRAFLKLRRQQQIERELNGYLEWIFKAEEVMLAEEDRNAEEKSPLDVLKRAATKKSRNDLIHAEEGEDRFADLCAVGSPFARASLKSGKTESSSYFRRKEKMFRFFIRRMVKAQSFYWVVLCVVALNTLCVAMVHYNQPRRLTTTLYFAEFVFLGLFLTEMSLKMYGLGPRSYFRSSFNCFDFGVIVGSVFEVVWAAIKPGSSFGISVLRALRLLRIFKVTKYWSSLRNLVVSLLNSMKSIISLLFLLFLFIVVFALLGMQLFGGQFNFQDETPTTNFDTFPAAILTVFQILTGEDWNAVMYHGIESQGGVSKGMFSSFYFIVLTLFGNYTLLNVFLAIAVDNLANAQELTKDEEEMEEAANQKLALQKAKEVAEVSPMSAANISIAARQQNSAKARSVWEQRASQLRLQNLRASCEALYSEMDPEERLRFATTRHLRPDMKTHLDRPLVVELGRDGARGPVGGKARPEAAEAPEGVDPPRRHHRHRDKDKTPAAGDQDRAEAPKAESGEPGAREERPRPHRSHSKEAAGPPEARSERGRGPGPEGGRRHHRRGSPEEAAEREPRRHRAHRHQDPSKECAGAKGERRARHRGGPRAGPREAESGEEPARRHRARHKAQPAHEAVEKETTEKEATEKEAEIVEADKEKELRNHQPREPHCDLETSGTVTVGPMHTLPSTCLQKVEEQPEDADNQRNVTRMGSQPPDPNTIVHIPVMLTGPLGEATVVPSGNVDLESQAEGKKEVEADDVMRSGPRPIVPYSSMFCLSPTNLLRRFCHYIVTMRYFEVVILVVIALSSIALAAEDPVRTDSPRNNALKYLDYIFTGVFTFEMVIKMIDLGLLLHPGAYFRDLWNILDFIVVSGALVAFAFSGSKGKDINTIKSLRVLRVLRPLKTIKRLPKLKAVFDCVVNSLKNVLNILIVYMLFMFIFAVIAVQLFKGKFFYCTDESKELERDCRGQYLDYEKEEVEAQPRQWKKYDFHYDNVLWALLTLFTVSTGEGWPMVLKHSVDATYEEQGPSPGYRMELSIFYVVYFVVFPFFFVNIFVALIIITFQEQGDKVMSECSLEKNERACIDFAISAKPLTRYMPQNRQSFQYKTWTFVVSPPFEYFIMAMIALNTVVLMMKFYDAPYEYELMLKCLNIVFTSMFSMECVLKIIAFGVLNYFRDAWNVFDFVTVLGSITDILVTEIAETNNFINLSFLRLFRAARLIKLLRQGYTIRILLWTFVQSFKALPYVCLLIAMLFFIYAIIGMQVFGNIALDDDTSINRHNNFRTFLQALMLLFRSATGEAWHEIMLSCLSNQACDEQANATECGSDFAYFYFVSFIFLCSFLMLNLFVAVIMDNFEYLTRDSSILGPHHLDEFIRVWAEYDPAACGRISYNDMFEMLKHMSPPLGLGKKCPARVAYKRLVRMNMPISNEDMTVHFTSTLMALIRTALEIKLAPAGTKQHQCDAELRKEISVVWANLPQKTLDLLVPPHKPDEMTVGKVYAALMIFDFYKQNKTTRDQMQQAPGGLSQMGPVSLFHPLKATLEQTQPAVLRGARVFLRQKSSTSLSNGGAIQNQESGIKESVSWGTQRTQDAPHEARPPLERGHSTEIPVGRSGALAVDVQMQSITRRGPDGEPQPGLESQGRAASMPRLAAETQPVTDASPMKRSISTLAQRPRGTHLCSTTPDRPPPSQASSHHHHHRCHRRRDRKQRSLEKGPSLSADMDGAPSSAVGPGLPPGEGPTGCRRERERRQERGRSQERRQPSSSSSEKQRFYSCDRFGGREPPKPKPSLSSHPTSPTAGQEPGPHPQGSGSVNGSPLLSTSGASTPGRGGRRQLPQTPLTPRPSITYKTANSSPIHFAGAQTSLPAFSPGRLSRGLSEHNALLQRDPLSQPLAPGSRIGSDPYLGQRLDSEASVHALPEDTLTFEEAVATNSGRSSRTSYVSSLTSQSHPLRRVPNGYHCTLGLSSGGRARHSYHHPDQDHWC
T3 sequence (Q02410 whole entry): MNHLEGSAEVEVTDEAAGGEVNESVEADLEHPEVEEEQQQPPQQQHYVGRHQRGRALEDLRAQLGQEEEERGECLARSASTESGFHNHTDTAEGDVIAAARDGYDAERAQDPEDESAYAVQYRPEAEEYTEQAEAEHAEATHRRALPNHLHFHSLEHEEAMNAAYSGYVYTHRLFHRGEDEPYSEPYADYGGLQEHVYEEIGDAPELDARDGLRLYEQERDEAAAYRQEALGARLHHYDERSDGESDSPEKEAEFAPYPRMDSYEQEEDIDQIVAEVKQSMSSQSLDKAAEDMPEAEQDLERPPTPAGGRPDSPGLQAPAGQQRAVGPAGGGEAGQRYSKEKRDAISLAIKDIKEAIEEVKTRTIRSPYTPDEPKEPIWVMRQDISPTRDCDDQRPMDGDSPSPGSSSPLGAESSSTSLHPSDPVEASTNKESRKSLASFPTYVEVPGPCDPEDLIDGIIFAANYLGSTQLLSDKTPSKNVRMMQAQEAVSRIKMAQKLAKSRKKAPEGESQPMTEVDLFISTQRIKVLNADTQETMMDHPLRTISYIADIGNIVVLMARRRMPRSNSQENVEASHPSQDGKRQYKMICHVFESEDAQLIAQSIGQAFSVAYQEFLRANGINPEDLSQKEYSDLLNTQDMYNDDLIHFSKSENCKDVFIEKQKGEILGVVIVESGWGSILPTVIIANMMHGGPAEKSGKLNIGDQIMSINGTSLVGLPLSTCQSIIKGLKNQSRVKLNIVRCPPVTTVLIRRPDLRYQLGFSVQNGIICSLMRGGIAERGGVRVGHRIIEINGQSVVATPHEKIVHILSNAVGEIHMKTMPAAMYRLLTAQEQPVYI

[8] = target: T4, Calpain-2 catalytic subunit (Sus scrofa, UniProt P43367); test: m-calpain protease blockers, concentration series – biochemical, fluorogenic peptide substrate, dose response (AID 1420); assay type: functional
T4 sequence (P43367 whole entry): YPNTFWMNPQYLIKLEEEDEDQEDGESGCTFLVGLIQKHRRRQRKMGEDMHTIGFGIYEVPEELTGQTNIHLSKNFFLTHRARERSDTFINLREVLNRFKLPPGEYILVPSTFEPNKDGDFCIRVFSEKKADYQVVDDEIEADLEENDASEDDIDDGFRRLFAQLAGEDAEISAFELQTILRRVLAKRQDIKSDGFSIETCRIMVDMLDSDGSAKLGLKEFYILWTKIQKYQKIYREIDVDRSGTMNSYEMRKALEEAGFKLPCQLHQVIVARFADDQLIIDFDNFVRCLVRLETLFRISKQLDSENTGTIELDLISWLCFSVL

[9] = Luminescence-based cell-based high throughput dose response assay to identify activators of the DAF-12 from the parasite S. stercoralis (ssDAF-12).; assay type: functional
[10] = target: T3, Voltage-gated N-type calcium channel alpha-1B subunit/Amyloid beta A4 precursor protein-binding family A member 1; assay type: protein assay; remark: listed apart in the source
[11] = target: T5, Microphthalmia-associated transcription factor (Homo sapiens, UniProt O75030); test: reducers of TRPM1 reporter luminescence, concentration series – cell-based, SK-MEL-5, cherry-picked, set 3, MITF inhibitor project, dose response (AID 493073); assay type: functional;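 also: SK-MEL-5 melanoma cells with luciferase driven by the MITF target TRPM1 promoter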
T5 sequence (O75030 whole entry): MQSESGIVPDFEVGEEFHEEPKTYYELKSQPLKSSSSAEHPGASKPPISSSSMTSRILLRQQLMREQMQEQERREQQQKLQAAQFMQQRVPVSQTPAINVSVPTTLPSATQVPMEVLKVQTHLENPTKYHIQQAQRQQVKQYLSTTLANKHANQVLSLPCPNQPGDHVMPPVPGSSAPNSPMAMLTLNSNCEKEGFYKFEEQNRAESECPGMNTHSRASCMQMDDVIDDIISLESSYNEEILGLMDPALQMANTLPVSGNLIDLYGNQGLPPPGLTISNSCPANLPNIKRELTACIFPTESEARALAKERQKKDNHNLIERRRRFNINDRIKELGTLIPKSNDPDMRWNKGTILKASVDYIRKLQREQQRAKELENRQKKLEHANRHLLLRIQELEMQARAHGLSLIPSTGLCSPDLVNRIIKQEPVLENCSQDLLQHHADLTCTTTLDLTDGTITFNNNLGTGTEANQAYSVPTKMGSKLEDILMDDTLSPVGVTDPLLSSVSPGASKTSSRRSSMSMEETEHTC

[12] = NIH-3T3 fibroblast cytotoxicity, dose response, cytotoxicity control, cell-based, fluorescence, Alamar Blue, secondary assay (AID 2327); assay type: functional;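 also: NIH-3T3 mouse fibroblasts cultured with fluconazole at 8 µg/mL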
[13] = target: Luciferin 4-monooxygenase (Photinus pyralis, UniProt P08659); test: inhibition of purified Photinus pyralis luciferase – biochemical, luminescence, dose response (AID 1891)
Sequence of Luciferin 4-monooxygenase (P08659 whole entry): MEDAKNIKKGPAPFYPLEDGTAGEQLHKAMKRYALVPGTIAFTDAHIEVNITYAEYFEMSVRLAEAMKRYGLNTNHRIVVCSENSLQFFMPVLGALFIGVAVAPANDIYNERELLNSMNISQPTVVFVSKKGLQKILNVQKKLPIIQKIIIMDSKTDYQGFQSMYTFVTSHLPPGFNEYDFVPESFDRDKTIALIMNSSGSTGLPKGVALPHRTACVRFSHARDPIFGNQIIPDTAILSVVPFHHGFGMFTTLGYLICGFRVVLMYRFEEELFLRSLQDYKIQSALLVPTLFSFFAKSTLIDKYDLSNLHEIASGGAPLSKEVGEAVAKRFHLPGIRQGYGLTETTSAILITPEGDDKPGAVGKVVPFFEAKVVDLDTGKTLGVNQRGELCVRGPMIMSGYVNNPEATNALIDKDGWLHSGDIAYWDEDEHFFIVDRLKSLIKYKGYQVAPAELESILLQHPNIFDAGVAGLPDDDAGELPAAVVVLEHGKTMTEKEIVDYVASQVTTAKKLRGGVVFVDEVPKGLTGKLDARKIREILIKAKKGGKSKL

HEK293 = test: EBV LMP1 TES2 canonical NF-kB signalling blockers – cell-based, HEK293, luciferase, cherry-pick, dose response (AID 588343); assay type: functional; conditions: Homo sapiens
INS1 = test: INS-1E survival protection against cytokine death – cell-based, luminescence, retest, dose response (AID 449756); assay type: functional; conditions: Rattus norvegicus;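 also: cell death triggered by IL-1 beta plus TNF-alpha plus IFN-gamma mixture; protective hits raise ATP signal compared with cytokine alone wells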
Streptococcus = test: GAS UMAA2166 growth inhibition – luminescence, BacTiterGlo, counter-screen for streptokinase expression inhibitor project, dose response (AID 1915); assay type: functional, organism-based;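 also: potency for reduction of bacterial viability or growth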
[14] = test system: Streptococcus sp. 'group A'; test: Streptococcus pyogenes SK(-)GAS viability under kanamycin – luminescence, BacTiterGlo, confirmation, counter-screen for streptokinase expression inhibitor project, dose response (AID 1900); assay type: functional, organism-based
[15] = fluconazole-exposed Candida albicans growth modulators – fluorescence, retest, confirmation (AID 2467); assay type: functional, cell-based
[16] = Luminescence Cell-Based Dose Confirmation HTS to Identify Inhibitors of Platelet Dense Granule Release. [Related pubchem assays: 1663 (Primary HTS), 1678 (Summary of Project)]; assay type: functional
[17] = target: T6, Heat shock factor protein 1 (Mus musculus, UniProt P38532); test: decrease of HSF1-responsive luciferase luminescence – cell-based, NIH3T3, dose retest, confirmation (AID 2382); assay type: functional;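 also: NIH3T3 fibroblasts with HSF1-driven luciferase reporter stressed by proteasome inhibitor MG132; luminescence from HSF1-driven luciferase expression after 8 hours of MG132 stress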
T6 sequence (P38532 whole entry): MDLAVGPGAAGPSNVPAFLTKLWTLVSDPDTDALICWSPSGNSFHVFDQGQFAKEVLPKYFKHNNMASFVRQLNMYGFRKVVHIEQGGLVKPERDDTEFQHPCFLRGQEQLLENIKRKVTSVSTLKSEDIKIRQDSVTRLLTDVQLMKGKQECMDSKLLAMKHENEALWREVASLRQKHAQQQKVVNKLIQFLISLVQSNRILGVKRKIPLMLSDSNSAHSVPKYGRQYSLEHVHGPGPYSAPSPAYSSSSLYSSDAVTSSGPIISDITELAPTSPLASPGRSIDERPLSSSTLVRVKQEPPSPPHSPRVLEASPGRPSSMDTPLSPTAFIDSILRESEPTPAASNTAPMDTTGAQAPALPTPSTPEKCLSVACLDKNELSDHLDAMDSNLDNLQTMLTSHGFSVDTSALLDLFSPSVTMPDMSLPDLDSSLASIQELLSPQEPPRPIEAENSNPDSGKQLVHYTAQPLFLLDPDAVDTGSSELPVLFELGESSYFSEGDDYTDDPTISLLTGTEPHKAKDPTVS

[18] = target: T2, Short transient receptor potential channel 4; test: block of DAMGO-driven TRPC4 calcium entry – cell-based, HEK293 TRPC4/mu-opioid, Fluo-4 calcium, dose response (AID 434942); assay type: functional;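 also: potency of inhibitors blocking the TRPC4 calcium response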
Cytochrome P450 2D6 = Cytochrome P450 2D6 (Homo sapiens, UniProt P10635);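 also: CYP2D6 member of a cytochrome P450 panel assay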
Sequence of Cytochrome P450 2D6 (P10635 whole entry): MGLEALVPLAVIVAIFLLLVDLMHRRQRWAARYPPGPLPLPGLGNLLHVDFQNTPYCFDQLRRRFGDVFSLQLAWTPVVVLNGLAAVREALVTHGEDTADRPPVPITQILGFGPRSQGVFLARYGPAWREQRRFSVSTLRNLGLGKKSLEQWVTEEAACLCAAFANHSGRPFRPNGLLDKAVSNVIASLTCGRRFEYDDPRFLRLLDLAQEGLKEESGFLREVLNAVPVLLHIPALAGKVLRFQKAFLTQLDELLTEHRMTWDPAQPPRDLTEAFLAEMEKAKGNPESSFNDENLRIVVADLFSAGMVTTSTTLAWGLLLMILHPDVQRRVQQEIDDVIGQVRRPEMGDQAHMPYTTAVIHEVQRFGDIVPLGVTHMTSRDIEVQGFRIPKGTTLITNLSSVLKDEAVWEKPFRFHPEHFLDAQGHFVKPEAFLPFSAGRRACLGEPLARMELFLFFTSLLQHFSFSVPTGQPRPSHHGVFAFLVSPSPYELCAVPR

N#Cc1c(N)nc(SCc2ccccn2)c(C#N)c1-c1cccs1
IC50 [1]: 0.158 µM (active) | IC50 [2]: 0.0829 µM (active)

CN1CCC(CNC(=O)Nc2ccccc2)(c2ccccc2)CC1
EC50 [3]: 1.33 µM (active)

CCc1ccc(CN(C)CCc2ccccn2)cc1
EC50 [4]: > 30 µM (not active) | EC50 [5]: < 100 nM (active) | EC50 (cells): 35 nM (active)

COC1CCC(OC2CC(C3(C)CCC4(CC(O)C(C)C(C(C)/C=C(\C)C(=O)C(C)CC(C)C(=O)O)O4)O3)OC3(OC(C4OC(O)(CO)C(C)CC4C)CC3C)C2C)OC1C (stereo not given)
AC50 [6]: 5.72 µM (active)

CCn1c2ccccc2c2cc(CNCCCN3CCOCC3)ccc21
EC50 [4]: > 60 µM (not active) | EC50 [5]: < 100 nM (active) | EC50 (cells): 13 nM (active)

O=c1c2ccccc2[nH]c(=S)n1CCN1CCCC1
IC50 [1]: 8.33 µM (active) | IC50 [2]: 4.01 µM (active)

COc1cccc(/N=c2\oc3ccc(OC)cc3cc2-c2nc3ccccc3[nH]2)c1
IC50 [7]: > 50 µM (inactive) | IC50 [8]: 7.91 µM (active) | IC50 [9]: > 67.5 µM (inactive) | IC50 [10]: 41 µM (active)

CN(C)C(CN=C(S)Nc1ccc(F)cc1)c1cccnc1 (stereo not given)
EC50 [3]: 0.0173 µM (active)

COc1ccc(S(=O)(=O)N2CCCCC2)cc1NC(=O)c1ccc([N+](=O)[O-])o1
EC50 [4]: 11.9 µM (active) | EC50 [5]: 4550 nM (active) | AC50 [11]: 9.14 µM (active)

O=C(NC(c1ccc(Cl)cc1)c1cc(Cl)c2cccnc2c1O)c1cccnc1 (stereo not given)
EC50 [12]: 8.56 µM (inconclusive) | EC50 [4]: 6.88 µM (active) | EC50 [13]: > 112 µM (not active) | AC50 (HEK293): 2 µM (active) | EC50 [5]: 253 nM (active) | AC50 [6]: 24.2 µM (active) | AC50 (INS1): 951 nM (active) | EC50 (Streptococcus): 1.36 µM (active) | EC50 [14]: 730 nM (active) | EC50 [15]: 660 nM (active) | EC50 [16]: > 112 µM (not active)

CCc1ccc(C(CNc2nc(C(F)(F)F)nc3ccccc23)N(C)C)cc1 (stereo not given)
EC50 [3]: 2.99 µM (active) | EC50 [17]: > 195 µM (not active) | EC50 [18]: 1.06 µM (active)

COc1ccc2nc(N(CCN(C)C)C(=O)c3ccc4c(c3)OCCO4)sc2c1
EC50 [4]: > 60 µM (not active) | EC50 [5]: < 100 nM (active) | EC50 (cells): 95 nM (active)

Cc1nccn1C[C@@H]1CCc2c(c3ccccc3n2C)C1=O [(S)-ONDANSETRON]
IC50 [1]: 0.0214 µM (active) | IC50 [2]: 1.12 µM (active) | AC50 (Cytochrome P450 2D6): 10 µM (inconclusive)

Cc1cccc(N2CCN(C(=O)CCCn3c(=O)[nH]c4ccsc4c3=O)CC2C)c1 (stereo not given)
IC50 [1]: 9.39 µM (active) | IC50 [2]: 8.43 µM (active)

CCN=C(S)N1CCC(C(O)(c2ccccc2)c2ccccc2)CC1
EC50 [3]: 10.6 µM (active) | EC50 [18]: 1.68 µM (active)

N#Cc1cc2c(nc1SC1CC(=O)N(c3ccccc3)C1=O)CCC2 (stereo not given)
AC50 [11]: 1.78 µM (active)
